Experimental data: article PMC9204775 (ACS Chemical Neuroscience, 2022)

How the values were obtained:
human (α4)3(β2)2 nAChR = human (α4)3(β2)2 nAChR (Homo sapiens, UniProt P17787+P43681); assay: Two-electrode voltage-clamp recording, (α4)3(β2)2 nAChRs expressed in Xenopus oocytes (α4:β2 cRNA 10:1); settings: for remaining activity at 100 µM: read-out: (α4)3(β2)2 nAChR (% control response ACh)
Procedure: (§2) To achieve heterologous expression of human α4β2 nAChRs in two distinct subunit stoichiometries [(α4)2(β2)3 and (α4)3(β2)2], a well-established protocol was employed in which Xenopus laevis oocytes were injected with α4 and β2 cRNA in ratios of 1:10 and 10:1, respectively.[19],[20] […] Oocytes were injected, using a Drummond variable volume microinjector, with 32.2 nL of cRNA containing either a mixture of 30 ng/μL human α4 and 300 ng/μL human β2 or 300 ng/μL human α4 and 30 ng/μL human β2 cRNAs.
(§3) Xenopus were anesthetized by immersion in 0.2% MS222 for 15 min (or until complete anesthesia was confirmed by absence of leg-withdrawal and righting reflex), followed by cranial concussion, decapitation, and pithing. Xenopus oocytes were isolated, maintained, and injected with cRNA, as described previously.[21] […] Application of compounds was controlled by LabChart software (AD Instruments) using a BPS-8 solenoid valve solution exchange system (ALA Scientific Inc.). Typically, agonists were applied for 5 s or until a plateau in the response was observed. Antagonists were preapplied for 30 s and then coapplied with agonist for 5 s or until a plateau in the response was observed.
(§4) For individual pairwise comparisons, statistical significance was determined using unpaired Student’s t tests or ANOVA for multiple comparisons. Dose–response curves were fitted by GraphPad Prism, using the following equation (where I is the current, Imax is the maximum current, the EC50 is the concentration of agonist that elicits a half-maximal response, and nH is the Hill coefficient): [drawing 1]

human α4β2 nAChR = biological target: T1, human α4β2 nAChR (Homo sapiens, UniProt P17787+P43681); assay: Two-electrode voltage-clamp recording, heterologously expressed α4β2 nAChRs (stoichiometry not distinguished); assay type: cell-based; settings: wild-type, no ACh
T1 construct: expressed in transfected cells; host or cells: Xenopus laevis oocytes (cRNA injection)
T1 sequence (P43681 27-627): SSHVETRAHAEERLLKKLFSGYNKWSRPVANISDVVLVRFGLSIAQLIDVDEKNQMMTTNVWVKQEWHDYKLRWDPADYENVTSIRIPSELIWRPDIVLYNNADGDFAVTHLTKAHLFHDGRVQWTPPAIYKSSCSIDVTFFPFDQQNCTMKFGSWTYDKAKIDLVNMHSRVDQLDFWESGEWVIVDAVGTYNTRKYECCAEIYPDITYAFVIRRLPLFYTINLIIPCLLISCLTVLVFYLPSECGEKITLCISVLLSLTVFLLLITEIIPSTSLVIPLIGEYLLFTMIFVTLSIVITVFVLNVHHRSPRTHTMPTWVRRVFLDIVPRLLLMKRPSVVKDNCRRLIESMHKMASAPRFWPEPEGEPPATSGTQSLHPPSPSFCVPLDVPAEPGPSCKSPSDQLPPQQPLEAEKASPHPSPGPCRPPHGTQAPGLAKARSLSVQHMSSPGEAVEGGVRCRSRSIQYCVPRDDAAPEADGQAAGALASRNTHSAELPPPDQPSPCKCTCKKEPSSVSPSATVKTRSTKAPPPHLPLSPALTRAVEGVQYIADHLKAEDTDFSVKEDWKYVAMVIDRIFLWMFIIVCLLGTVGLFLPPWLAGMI
T1 sequence (P17787 26-502): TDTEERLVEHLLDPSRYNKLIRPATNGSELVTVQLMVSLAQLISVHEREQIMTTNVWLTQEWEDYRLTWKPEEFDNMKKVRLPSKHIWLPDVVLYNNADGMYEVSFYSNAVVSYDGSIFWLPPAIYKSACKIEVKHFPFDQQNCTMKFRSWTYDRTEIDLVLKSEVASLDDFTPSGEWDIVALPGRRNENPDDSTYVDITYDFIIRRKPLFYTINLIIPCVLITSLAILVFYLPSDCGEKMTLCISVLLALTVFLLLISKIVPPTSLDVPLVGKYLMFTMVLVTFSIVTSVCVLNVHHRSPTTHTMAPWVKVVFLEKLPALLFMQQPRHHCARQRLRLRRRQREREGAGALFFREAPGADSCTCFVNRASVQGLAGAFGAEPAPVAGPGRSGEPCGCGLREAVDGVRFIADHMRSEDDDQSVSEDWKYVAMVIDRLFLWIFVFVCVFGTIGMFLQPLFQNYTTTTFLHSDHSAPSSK
Procedure: as §2
Xenopus oocytes were isolated, maintained, and injected with cRNA, as described previously.[21] Two-electrode voltage-clamp recordings were performed using a Warner Instruments OC-725C amplifier (Harvard Apparatus) with the oocyte membrane potential held at −60 mV, as described previously.[22] Oocytes were continuously perfused with a modified Ringer’s solution (115 mM NaCl, 2.5 mM KCl, 1.8 mM BaCl2, and 10 mM HEPES, pH 7.3). Application of compounds was controlled by LabChart software (AD Instruments) using a BPS-8 solenoid valve solution exchange system (ALA Scientific Inc.). Typically, agonists were applied for 5 s or until a plateau in the response was observed. Antagonists were preapplied for 30 s and then coapplied with agonist for 5 s or until a plateau in the response was observed.

[1] = biological target: α4β2 nAChRs containing mutated α4^L283A (Homo sapiens, UniProt P17787+P43681, L283A); settings: no ACh
Sequence of α4β2 nAChRs containing mutated α4^L283A (P43681 27-627 L283A): as the sequence (P43681 27-627) above, with L257A counted along it
Sequence of α4β2 nAChRs containing mutated α4^L283A (P17787 26-502): as the sequence (P17787 26-502) above
Text: (§1) Human nAChR subunit cDNAs in plasmid expression vector pSP64GL (pSP64GL-α4 and pSP64GL-β2) have been described previously.[18] […] Note that the numbering of these amino acids in the human nAChR α4 and β2 subunits is based on the intact protein sequence (including the signal sequence), as indicated in the EMBL/GenBank database entries NP_000735.1 and NP_000739.1, respectively.

[2] = biological target: α4β2 nAChRs containing mutated α4^S284A (Homo sapiens, UniProt P17787+P43681, S284A); settings: no ACh
Sequence of α4β2 nAChRs containing mutated α4^S284A (P43681 27-627 S284A): as the sequence (P43681 27-627) above, with S258A counted along it
Sequence of α4β2 nAChRs containing mutated α4^S284A (P17787 26-502, stated change not applied): as the sequence (P17787 26-502) above
Text: as §1

[3] = biological target: α4β2 nAChRs containing the β2^V278A subunit (Homo sapiens, UniProt P17787+P43681, V278A); settings: no ACh
Sequence of α4β2 nAChRs containing the β2^V278A subunit (P43681 27-627): as the sequence (P43681 27-627) above
Sequence of α4β2 nAChRs containing the β2^V278A subunit (P17787 26-502 V278A): as the sequence (P17787 26-502) above, with V253A counted along it
Text: as §1

human (α4)2(β2)3 nAChR = biological target: T2, human (α4)2(β2)3 nAChR (Homo sapiens, UniProt P17787+P43681); assay: Two-electrode voltage-clamp recording, (α4)2(β2)3 nAChRs expressed in Xenopus oocytes (α4:β2 cRNA 1:10); assay type: cell-based; settings: for remaining activity at 100 µM: read-out: (α4)2(β2)3 nAChR (% control response to ACh); for stoichiometry selectivity of antagonism, (α4)2(β2)3 versus (α4)3(β2)2 nAChRs: 100 μM antibiotic coapplied with EC50 concentration of ACh, compared with (α4)3(β2)2
T2 construct: expressed in transfected cells; host or cells: Xenopus laevis oocytes (cRNA injection)
T2 sequence (P43681 27-627): as the sequence (P43681 27-627) above
T2 sequence (P17787 26-502): as the sequence (P17787 26-502) above
Procedure: as §2, §3, §4

human α7 nAChRs = settings: previous studies; cited from earlier work
[4] = 100 μM antibiotic coapplied with a range of ACh concentrations

Sequence of human (α4)3(β2)2 nAChR (P43681 27-627): as the sequence (P43681 27-627) above
Sequence of human (α4)3(β2)2 nAChR (P17787 26-502): as the sequence (P17787 26-502) above

remaining activity at 100 µM (human (α4)3(β2)2 nAChR) [%]	remaining activity at 100 µM (human (α4)2(β2)3 nAChR) [%]	SMILES	stoichiometry selectivity of antagonism, (α4)2(β2)3 versus (α4)3(β2)2 nAChRs (human (α4)2(β2)3 nAChR)	other results
		CC(=O)OCC[N+](C)(C)C [ACh, acetylcholine]		Hill coefficient of ACh dose-response curve (human (α4)3(β2)2 nAChR; absence of antibiotic): 0.74 ± 0.
60.4 ± 0.61	58.2 ± 1.2	CCn1nc(C(=O)O)c(=O)c2cc3c(cc21)OCO3 [cinoxacin]		Hill coefficient of ACh dose-response curve in the presence of the antibiotic (human (α4)3(β2)2 nAChR; 100 μM antibiotic): 0.62 ± 0.2; maximal normalized ACh response in the presence of the antibiotic (human (α4)3(β2)2 nAChR; [4]): 80.0 ± 0.9%; effect when applied alone (human α4β2 nAChR): no effect; effect when applied alone [1]: no effect; effect when applied alone [2]: no effect; effect when applied alone [3]: no effect; Hill coefficient of ACh dose-response curve in the presence of the antibiotic (human (α4)2(β2)3 nAChR; 100 μM antibiotic): 1.0 ± 0.1; maximal normalized ACh response in the presence of the antibiotic (human (α4)2(β2)3 nAChR; [4]): 76.0 ± 1.5%
57.2 ± 0.97	39.9 ± 3.02	CN1CCN(c2cc3c(cc2F)c(=O)c(C(=O)O)cn3-c2ccc(F)cc2)CC1 [difloxacin]	significantly greater antagonism on (α4)2(β2)3 nAChRs than on (α4)3(β2)2 nAChRs	
74.6 ± 1.88	23.5 ± 1.65	CCn1cc(C(=O)O)c(=O)c2cc(F)c(N3CCNCC3)nc21 [enoxacin]	significantly greater antagonism on (α4)2(β2)3 nAChRs than on (α4)3(β2)2 nAChRs	
64.8 ± 1.01	13.2 ± 0.46	CCN1CCN(c2cc3c(cc2F)c(=O)c(C(=O)O)cn3C2CC2)CC1 [enrofloxacin]	significantly greater antagonism on (α4)2(β2)3 nAChRs than on (α4)3(β2)2 nAChRs	
54.1 ± 3.4	13 ± 1	CCn1cc(C(=O)O)c(=O)c2cc(F)c(N3CCNCC3)cc21 [norfloxacin]	significantly greater antagonism on (α4)2(β2)3 nAChRs than on (α4)3(β2)2 nAChRs	
		CCn1cc(C(=O)O)c(=O)c2cc(F)c(N3CCN(C)CC3)cc21 [pefloxacin]		mode of action on α7 nAChR (human α7 nAChRs): noncompetitive antagonist
58.4 ± 1.72	17.4 ± 1.12	C[C@@H]1CN(c2c(F)c(N)c3c(=O)c(C(=O)O)cn(C4CC4)c3c2F)C[C@H](C)N1 [sparfloxacin]	significantly greater antagonism on (α4)2(β2)3 nAChRs than on (α4)3(β2)2 nAChRs	

SMILES	remaining activity at 100 µM (human (α4)3(β2)2 nAChR) [%]	remaining activity at 100 µM (human (α4)2(β2)3 nAChR) [%]	stoichiometry selectivity of antagonism, (α4)2(β2)3 versus (α4)3(β2)2 nAChRs (human (α4)2(β2)3 nAChR)	other results
CCn1cc(C(=O)O)c(=O)c2cc3c(cc21)OCO3 [oxolinic acid]	60.4 ± 0.72	59.5 ± 0.99	no significant difference	
